Results reported in patent US10660967B2, “Curcumin conjugates and methods of use thereof” (priority 2016, dated 2020).

Tested on: carrageenan induced paw edema
Test: Anti-inflammatory activity: acute carrageenan induced paw edema in rats
Type: in vivo, Wister rats
Conditions: 10 mg kg^−1 indomethacin mol equivalent; for % inhibition of edema / Mean edema thickness: intraperitoneally; for Mean edema thickness: mean ± SE; for Potency (% inhibition of edema relative to that of indomethacin reference standard): at 4 h effect
Experimental: The anti-inflammatory activity of the tested compounds was determined in vivo by the acute carrageenan induced paw edema standard method in rats. See, Naumov, et al., Bioorg. Med. Chem. Lett, 25: 2314-2320 (2015), Tiwari, et al., Org. Biomol. Chem, 12: 7238-7249 (2014), Girgis, et al., Eur. J. Med. Chem, 50: 1-8 (2012), Barsoum, et al., Eur. J. Med. Chem, 44: 2172-2177 (2009), Girgis, et al., Eur. J. Med. Chem, 44: 1972-1977 (2009), Girgis, et al., Eur. J. Med. Chem, 44: 1257-1264 (2009), Girgis, et al., Eur. J. Med. Chem, 44: 91-100 (2009), Girgis, et al., Eur. J. Med. Chem, 43: 2116-2121 (2008), Girgis, et al., Bioorg. Med. Chem, 14: 8527-8532 (2006), and Barsoum, et al., Bioorg. Med. Chem, 14: 3929-3937 (2006).
Adult Wister rats of either sex (pregnant female animals were excluded) weighing 120-150 g were divided into 18 groups of 6 animals each. […] The control group was given DMSO only. Carrageenan paw edema was induced by subcutaneous injection of freshly prepared 1% solution of carrageenan in saline (0.9%, 0.1 ml per rat) into subplantar tissue of the right hind paw of rats. The thickness of the paw was measured (in mm) after successive time intervals (1, 2,3,4 and 24 h) and compared with the initial hind paw thickness of each rat for determining the edema thickness. Data were collected, checked, revised and analyzed. Quantitative variables from normal distribution were expressed as means±SE “standard error”. The anti-inflammatory activity was expressed as percentage inhibition of edema thickness in treated animals in comparison with the control group according to eqn. (1)
Where, Vc and Vt are the mean of edema paw thickness for the control and tested compound treated animal groups, respectively.

Structure (SMILES) | % inhibition of edema (1 h) [%] | Mean edema thickness (1 h) [mm] | % inhibition of edema (2 h) [%] | Mean edema thickness (2 h) [mm] | % inhibition of edema (3 h) [%] | Mean edema thickness (3 h) [mm] | % inhibition of edema (4 h) [%] | Mean edema thickness (4 h) [mm] | % inhibition of edema (24 h) [%] | Mean edema thickness (24 h) [mm] | Potency (% inhibition of edema relative to that of indomethacin reference standard)
COc1cc(/C=C/C(=O)CC(=O)/C=C/c2ccc(OC(=O)[C@@H](NC(=O)OCC3c4ccccc4-c4ccccc43)C(C)C)c(OC)c2)ccc1OC(=O)[C@@H](NC(=O)OCC1c2ccccc2-c2ccccc21)C(C)C [Compound 15] | 22 | 1.88 ± 0.22 | 49 | 1.05 ± 0.23 | 50 | 0.90 ± 0.17 | 53 | 0.66 ± 0.19 | 47 | 0.44 ± 0.11 | 61
COc1cc(/C=C/C(=O)CC(=O)/C=C/c2ccc(OC(=O)[C@H](CC(C)C)NC(=O)OCC3c4ccccc4-c4ccccc43)c(OC)c2)ccc1OC(=O)[C@H](CC(C)C)NC(=O)OCC1c2ccccc2-c2ccccc21 [Compound 16] | 40 | 1.45 ± 0.18 | 41 | 1.22 ± 0.25 | 48 | 0.93 ± 0.20 | 50 | 0.70 ± 0.19 | 40 | 0.50 ± 0.10 | 57
COc1cc(/C=C/C(=O)CC(=O)/C=C/c2ccc(OC(=O)[C@H](CCSC)NC(=O)OCC3c4ccccc4-c4ccccc43)c(OC)c2)ccc1OC(=O)[C@H](CCSC)NC(=O)OCC1c2ccccc2-c2ccccc21 [Compound 17] | 46 | 1.30 ± 0.04 | 73 | 0.56 ± 0.17 | 75 | 0.45 ± 0.18 | 98 | 0.03 ± 0.01 | 23 | 0.64 ± 0.02 | 113
COc1cc(/C=C/C(=O)CC(=O)/C=C/c2ccc(OC(=O)[C@H](Cc3ccccc3)NC(=O)OCC3c4ccccc4-c4ccccc43)c(OC)c2)ccc1OC(=O)[C@H](Cc1ccccc1)NC(=O)OCC1c2ccccc2-c2ccccc21 [Compound 18] | 10 | 2.17 ± 0.24 | 41 | 1.22 ± 0.16 | 54 | 0.82 ± 0.08 | 60 | 0.56 ± 0.04 | 5 | 0.79 ± 0.02 | 69
COc1cc(/C=C/C(=O)CC(=O)/C=C/c2ccc(OC(=O)[C@@H](C)NC(=O)OCc3ccccc3)c(OC)c2)ccc1OC(=O)[C@@H](C)NC(=O)OCc1ccccc1 [Compound 19] | 82 | 0.43 ± 0.08 | 89 | 0.23 ± 0.04 | 95 | 0.09 ± 0.03 | 100 | 0.00 ± 0.00 | 49 | 0.42 ± 0.06 | 115
COc1cc(/C=C/C(=O)CC(=O)/C=C/c2ccc(OC(=O)[C@@H](CCSC)NC(=O)OCc3ccccc3)c(OC)c2)ccc1OC(=O)[C@@H](CCSC)NC(=O)OCc1ccccc1 [Compound 20] | 79 | 0.51 ± 0.04 | 80 | 0.41 ± 0.03 | 85 | 0.27 ± 0.01 | 94 | 0.08 ± 0.02 | 90 | 0.08 ± 0.01 | 108
COc1cc(/C=C/C(=O)CC(=O)/C=C/c2ccc(OC(=O)[C@H](CCC(N)=O)NC(=O)OCc3ccccc3)c(OC)c2)ccc1OC(=O)[C@H](CCC(N)=O)NC(=O)OCc1ccccc1 [Compound 21] | 51 | 1.18 ± 0.11 | 47 | 1.09 ± 0.19 | 45 | 0.99 ± 0.09 | 44 | 0.78 ± 0.10 | 4 | 0.80 ± 0.05 | 51
COc1cc(/C=C/C(=O)CC(=O)/C=C/c2ccc(OC(=O)CNC(=O)OC(C)(C)C)c(OC)c2)ccc1OC(=O)CNC(=O)OC(C)(C)C [Compound 22] | 43 | 1.37 ± 0.18 | 44 | 1.16 ± 0.14 | 44 | 1.00 ± 0.11 | 48 | 0.73 ± 0.09 | 47 | 0.44 ± 0.05 | 55
COc1cc(/C=C/C(=O)CC(=O)/C=C/c2ccc(OC(=O)[C@H](Cc3ccccc3)NC(=O)OC(C)(C)C)c(OC)c2)ccc1OC(=O)[C@H](Cc1ccccc1)NC(=O)OC(C)(C)C [Compound 23] | 39 | 1.47 ± 0.16 | 44 | 1.16 ± 0.09 | 53 | 0.85 ± 0.11 | 59 | 0.58 ± 0.03 | 51 | 0.41 ± 0.02 | 68
COc1cc(/C=C/C(=O)CC(=O)/C=C/c2ccc(OC(=O)[C@H](C)NC(=O)OC(C)(C)C)c(OC)c2)ccc1OC(=O)[C@H](C)NC(=O)OC(C)(C)C [Compound 24] | 6 | 2.26 ± 0.20 | 11 | 1.84 ± 0.17 | 20 | 1.44 ± 0.14 | 28 | 1.04 ± 0.18 | 5 | 0.79 ± 0.17 | 32
COc1cc(/C=C/C(=O)CC(=O)/C=C/c2ccc(OC(=O)C(C)NC(=O)OC(C)(C)C)c(OC)c2)ccc1OC(=O)C(C)NC(=O)OC(C)(C)C (centres unmarked) [Compound 25] | 11 | 2.15 ± 0.14 | 16 | 1.74 ± 0.18 | 25 | 1.34 ± 0.20 | 40 | 0.84 ± 0.12 | 29 | 0.59 ± 0.09 | 46
COc1cc(/C=C/C(=O)CC(=O)/C=C/c2ccc(OC(=O)[C@@H](C)NC(=O)OC(C)(C)C)c(OC)c2)ccc1OC(=O)[C@@H](C)NC(=O)OC(C)(C)C [Compound 26] | 22 | 1.87 ± 0.13 | 29 | 1.46 ± 0.21 | 39 | 1.09 ± 0.11 | 42 | 0.81 ± 0.08 | 37 | 0.52 ± 0.05 | 48
COc1cc(/C=C/C(=O)CC(=O)/C=C/c2ccc(OC(=O)CCNC(=O)OC(C)(C)C)c(OC)c2)ccc1OC(=O)CCNC(=O)OC(C)(C)C [Compound 27] | 31 | 1.66 ± 0.19 | 33 | 1.38 ± 0.11 | 45 | 0.99 ± 0.12 | 61 | 0.55 ± 0.07 | 28 | 0.60 ± 0.03 | 70
